Active and inactive are the calls of the source. The calls are words filed in the database; no cut-off is given here.
Experiments:
Format in all cases: cell-based
[1] = target: T1, Toll-like receptor 4 (Mus musculus) (UniProt Q9QUK6); experiment: Inhibition of TLR4-mediated NF-kappaB signaling pathway in BALB/c mouse RAW264.7 cells assessed as suppression of LPS-stimulated PGE2 production at 0.5 to 5 ug/ml preincubated for 1 hr followed by LPS challenge measured after 6 hrs by immunoblot analysis in presence of HEA
T1 sequence (whole entry): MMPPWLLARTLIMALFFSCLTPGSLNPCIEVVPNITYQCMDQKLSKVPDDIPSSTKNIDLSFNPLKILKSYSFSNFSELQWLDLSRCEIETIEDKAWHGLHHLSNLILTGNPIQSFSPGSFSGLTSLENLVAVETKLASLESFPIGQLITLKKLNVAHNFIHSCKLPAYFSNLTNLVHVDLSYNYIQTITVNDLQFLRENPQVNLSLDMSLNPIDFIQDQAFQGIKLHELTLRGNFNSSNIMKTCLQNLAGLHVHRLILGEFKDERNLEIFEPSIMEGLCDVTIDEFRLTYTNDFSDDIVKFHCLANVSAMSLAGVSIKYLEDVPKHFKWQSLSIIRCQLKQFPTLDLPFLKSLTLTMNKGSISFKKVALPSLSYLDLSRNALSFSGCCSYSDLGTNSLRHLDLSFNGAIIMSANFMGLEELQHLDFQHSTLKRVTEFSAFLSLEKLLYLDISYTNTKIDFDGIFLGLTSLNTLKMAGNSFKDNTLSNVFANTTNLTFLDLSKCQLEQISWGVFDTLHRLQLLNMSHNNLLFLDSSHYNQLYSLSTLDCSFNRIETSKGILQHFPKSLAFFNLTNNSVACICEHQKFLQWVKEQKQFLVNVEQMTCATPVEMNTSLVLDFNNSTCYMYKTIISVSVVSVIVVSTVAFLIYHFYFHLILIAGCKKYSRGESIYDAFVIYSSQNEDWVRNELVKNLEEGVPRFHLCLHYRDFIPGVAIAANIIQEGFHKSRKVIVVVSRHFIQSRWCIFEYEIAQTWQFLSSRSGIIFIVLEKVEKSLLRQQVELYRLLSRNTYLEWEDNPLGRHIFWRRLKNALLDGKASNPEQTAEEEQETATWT

[2] = target: T1, Toll-like receptor 4 (Mus musculus); experiment: Inhibition of TLR4-mediated NF-kappaB signaling pathway in BALB/c mouse RAW264.7 cells assessed as suppression of LPS-stimulated TNF-alpha production at 2.5 to 10 ug/ml preincubated for 1 hr followed by LPS challenge measured after 6 hrs by immunoblot analysis
[3] = target: T1, Toll-like receptor 4 (Mus musculus); experiment: Inhibition of TLR4-mediated NF-kappaB signaling pathway in BALB/c mouse RAW264.7 cells assessed as suppression of LPS-stimulated PGE2 production at 0.5 to 5 ug/ml preincubated for 1 hr followed by LPS challenge measured after 6 hrs by immunoblot analysis in presence of cordycepin
[4] = target: T1, Toll-like receptor 4 (Mus musculus); experiment: Inhibition of TLR4-mediated NF-kappaB signaling pathway in BALB/c mouse RAW264.7 cells assessed as suppression of LPS-stimulated TNF-alpha production at 0.5 to 5 ug/ml preincubated for 1 hr followed by LPS challenge measured after 6 hrs by immunoblot analysis in presence of HEA
[5] = target: T1, Toll-like receptor 4 (Mus musculus); experiment: Inhibition of TLR4-mediated NF-kappaB signaling pathway in BALB/c mouse RAW264.7 cells assessed as suppression of LPS-stimulated PGE2 production at 2.5 to 10 ug/ml preincubated for 1 hr followed by LPS challenge measured after 6 hrs by immunoblot analysis
[6] = target: T1, Toll-like receptor 4 (Mus musculus); experiment: Inhibition of TLR4-mediated NF-kappaB signaling pathway in BALB/c mouse RAW264.7 cells assessed as suppression of LPS-stimulated TNF-alpha production at 0.5 to 5 ug/ml preincubated for 1 hr followed by LPS challenge measured after 6 hrs by immunoblot analysis in presence of cordycepin
[7] = target: T1, Toll-like receptor 4 (Mus musculus); experiment: Inhibition of TLR4-mediated NF-kappaB signaling pathway in BALB/c mouse RAW264.7 cells assessed as suppression of LPS-stimulated TNF-alpha production at 1 to 10 ug/ml preincubated for 1 hr followed by LPS challenge measured after 6 hrs by immunoblot analysis
[8] = target: T1, Toll-like receptor 4 (Mus musculus); experiment: Inhibition of TLR4-mediated NF-kappaB signaling pathway in BALB/c mouse RAW264.7 cells assessed as suppression of LPS-stimulated TNF-alpha production at 0.5 to 5 ug/ml preincubated for 1 hr followed by LPS challenge measured after 6 hrs by immunoblot analysis in presence of adenosine
[9] = target: T1, Toll-like receptor 4 (Mus musculus); experiment: Inhibition of TLR4-mediated NF-kappaB signaling pathway in BALB/c mouse RAW264.7 cells assessed as suppression of LPS-stimulated PGE2 production at 0.5 to 5 ug/ml preincubated for 1 hr followed by LPS challenge measured after 6 hrs by immunoblot analysis in presence of adenosine
[10] = target: T1, Toll-like receptor 4 (Mus musculus); experiment: Inhibition of TLR4-mediated NF-kappaB signaling pathway in BALB/c mouse RAW264.7 cells assessed as suppression of LPS-stimulated PGE2 production at 1 to 10 ug/ml preincubated for 1 hr followed by LPS challenge measured after 6 hrs by immunoblot analysis

| inhibition [1] | inhibition [2] | inhibition [3] | inhibition [4] | inhibition [5] | inhibition [6] | inhibition [7] | inhibition [8] | inhibition [9] | inhibition [10] | SMILES |
| --- | --- | --- | --- | --- | --- | --- | --- | --- | --- | --- |
| inactive | Active | inactive | inactive | Active | inactive | – | – | – | – | Nc1ncnc2c1ncn2[C@@H]1O[C@H](CO)[C@@H](O)[C@H]1O |
| inactive | – | – | inactive | – | – | Active | inactive | inactive | Active | Nc1ncnc2c1ncn2[C@@H]1O[C@H](CO)C[C@H]1O |
